According to paper PMC7084598, “Design, Synthesis, and Biological Evaluation of Two Series of Novel A-Ring Fused Steroidal Pyrazines as Potential Anticancer Agents” (International Journal of Molecular Sciences, 2020):

Tests used:
[1] = test system: DU-145; set-up: method as in PMID 14695204, PMID 26042639; settings: cited from earlier work
[2] = test system: MCF-7; set-up: method as in PMID 14695204, PMID 26042639; settings: cited from earlier work
[3] = test system: NCI-H460; set-up: method as in PMID 14695204, PMID 26042639; settings: cited from earlier work
[4] = test system: P338; set-up: method as in PMID 14695204, PMID 26042639; settings: cited from earlier work
[5] = test system: MCF-7 (breast carcinoma); experiment: CCK-8 antiproliferative assay, MCF-7; assay type: cell-based; settings: Homo sapiens, MCF7, 48 h, CCK8, mean of three independent experiments, NA = no activity, read-out: Inhibitory Ratio (Mean% ± SD%) MCF-7
Experimental: (§1) All the thirty-six target derivatives (5a–5f, 10a–10o, and 12a–12o) were screened for antiproliferative activities against three human cancer cell lines (MCF-7, PC-3, and HepG2) and cytotoxicity on a normal human cell (THLE-2) at the concentration of 20 μM by using the CCK8 assay.
(§2) Thirty-six novel steroidal A-ring fused pyrazine hybrids were evaluated by Cell Counting Kit-8 (CCK-8) assays, to evaluate their in vitro antiproliferative activities on three human cancer cell lines and one normal cell line: MCF-7 (breast carcinoma), PC-3 (prostate carcinoma), HepG2 (liver hepatocellular carcinoma), and THLE-2 ([…]), with 5-fluorouracil as the positive control.
(§3) Cells (3 × 10^3 cells per well) seeded into 96-well plates (Costar, Shanghai, China) were incubated with Ham’s F-12K containing various concentrations of steroidal pyrazines (5a–5f, 10a–10o, and 12a–12o) for 48 h at 37 °C and 5% COThen, 10 μL of CCK-8 reagent (Beyotime, Shanghai, China) dissolved in PBS (Phosphate buffered saline) was added per well, and continuously incubated at 37 °C for 1 h. Finally, the absorbance of samples taken from each well was measured on a microplate reader at 450 nm. The antiproliferative activities were expressed as inhibitory activity and IC50 values calculated using GraphPad Software 5.0 (GraphPad Software, San Diego, CA, USA), which were the mean values of three independent tests and are shown in Table 1 and Table 2, respectively. The formula used for cell inhibitory rates was (1 - sample absorption/vehicle absorption) × 100%.

[6] = test system: PC-3 (prostate carcinoma); experiment: CCK-8 antiproliferative assay, PC-3; assay type: cell-based, human
Experimental: as §1, §2, §3

[7] = test system: HepG2 (liver hepatocellular carcinoma); experiment: CCK-8 antiproliferative assay, HepG2; assay type: cell-based; settings: Homo sapiens, 48 h, CCK8, mean of three independent experiments, NA = no activity, read-out: Inhibitory Ratio (Mean% ± SD%) HepG2
Experimental: as §1, §2, §3

[8] = test system: THLE-2 (normal human cells); experiment: CCK-8 cytotoxicity on normal cells, THLE-2; assay type: cell-based
Experimental: as §1, §2, §3

[9] = test system: PC-3 cells; experiment: Cell apoptosis assay, Annexin V-FITC/PI dual staining, flow cytometry; assay type: cell-based, human; settings: for Percentage of Cell Apoptosis (%) Normal Living Cell: 48 h (Q1-LL); for Percentage of Cell Apoptosis (%) Early Apoptosis: 48 h (Q1-LR); for Percentage of Cell Apoptosis (%) Necrosis: 48 h (Q1-UL); for Percentage of Cell Apoptosis (%) Late Apoptosis: 48 h (Q1-UR); for apoptosis ratio (early and late apoptotic ratios): 48 h, blank control 5.77%
Experimental: To clarify the effect of steroidal pyrazines on the induction of apoptosis in PC-3 cells, a flow cytometry assay with Annexin-V-FITC/PI double staining was implemented.
The cell apoptosis was evaluated with Annexin V-FITC/PI dual staining (Beyotime, Shanghai, China), as previously described. PC-3 cells (1 × 10^6 cells per well) seeded into 6-well plates (Costar, Shanghai, China) were incubated with Ham’s F-12K containing various concentrations (0.2, 1.0, and 5.0 μM) of compound 12n for 48 h. The biological samples were analyzed using flow cytometry (CytoFLEX, CA, USA).

[10] = test system: PC-3 cells; experiment: Cell cycle assay, PI single staining, flow cytometry; assay type: cell-based, human; settings: for Percentage of Cell Cycles (%) G1 / Percentage of Cell Cycles (%) S / Percentage of Cell Cycles (%) G2/M: 48 h; for Percentage of Cell Cycles (%) G2/M: control 15.69%
Experimental: To further clarify the effects of A-ring fused steroidal pyrazines on cell growth, the cell cycle distribution of PC-3 cells was investigated through treatment with compound 12n at concentration gradients for 48 h (Figure 5 and Table 5).
The cell cycle was examined by PI single staining (Beyotime, Shanghai, China), as previously described. […] The samples were analyzed using flow cytometry for DNA content (CytoFLEX, California, United States).

[11] = test system: PC-3 cells; experiment: Giemsa staining for morphological features of apoptosis; assay type: cell-based, human; settings: 1.0 and 4.0 μM, 48 h
Experimental: After being treated with 12n at different concentrations (1.0 and 4.0 μM), the cells were stained with Giemsa stain. […] Other morphological changes, such as the loss of volume and deformation of a regular appearance, were also found.
Giemsa stain was used to assess the morphological changes of PC-3 cells, according to the standard Giemsa procedure established by the supplier (Solarbio, Beijng, China). Briefly, PC-3 cells were plated at 3 × 10^3 cells/well into a 96-well plates. PC-3 cells after treatment with 12n for 48 h were fixed with methanol (75%) for 10 min at room temperature. Then, the cells were stained with Giemsa (diluted with phosphate buffer), observed, and photographed under the microscope at 200 × (Olympus Corporation, Tokyo, Japan ).

C[C@@H]1[C@]2(O[C@H]3C=C4[C@@H]5CC[C@H]6Cc7nc8c(nc7C[C@]6(C)[C@H]5C[C@@H](O)[C@]4(C)[C@]31O)C[C@@H]1CC[C@H]3C4=CC[C@@H]5[C@H](C)[C@@]6(OC[C@]45C(=O)C[C@@H]3[C@@]1(C)C8)OC(C)(C)C[C@H]6O)O[C@](C)(CO)C[C@H]2O [Cephalostatin 1]
GI50 [1]: 0.11 nM | GI50 [2]: 0.099 nM | GI50 [3]: 0.044 nM

Ritterazine B
ED50 (nM) for P338 [4]: 0.17 nM

CC(O)C1CCC2C3CC=C4C(C)(C)c5nc(C(=O)NCCc6ccccc6)cnc5CC4(C)C3CCC12C (stereo not shown) [Compound 12n]
inhibition at 20 µM [5]: 40.8 ± 1.72% | inhibition at 20 µM ([6]; Homo sapiens, 48 h, 20 μM, 48 h, CCK8, mean of three independent experiments, NA = no activity, read-out: Inhibitory Ratio (Mean% ± SD%) PC-3): > 60% | IC50 ([6]; Homo sapiens, CCK-8, 48 h, triplicate): 930 ± 20 nM | SI: Selectivity index = (IC50 of THLE-2)/(IC50 of PC-3) ([6]; THLE-2 vs PC-3): 28.71 | inhibition at 20 µM [7]: 55.4 ± 1% | inhibition at 20 µM ([8]; 20 μM, 48 h, CCK8, NA = no activity, read-out: Inhibitory Ratio (Mean% ± SD%) THLE-2): 19.3 ± 1.81% | IC50 ([8]; CCK-8, 48 h): 26700 nM | Percentage of Cell Apoptosis (%) Normal Living Cell ([9]; PC-3, 0.2 μM): 89.20% | Percentage of Cell Apoptosis (%) Early Apoptosis ([9]; PC-3, 0.2 μM): 0.76% | Percentage of Cell Apoptosis (%) Necrosis ([9]; PC-3, 0.2 μM): 2.15% | Percentage of Cell Apoptosis (%) Late Apoptosis ([9]; PC-3, 0.2 μM): 7.90% | apoptosis ratio (early and late apoptotic ratios) ([9]; PC-3, 0.2 μM): 8.66% | Percentage of Cell Apoptosis (%) Normal Living Cell ([9]; PC-3, 1.0 μM): 73.17% | Percentage of Cell Apoptosis (%) Early Apoptosis ([9]; PC-3, 1.0 μM): 4.55% | Percentage of Cell Apoptosis (%) Necrosis ([9]; PC-3, 1.0 μM): 3.21% | Percentage of Cell Apoptosis (%) Late Apoptosis ([9]; PC-3, 1.0 μM): 19.07% | apoptosis ratio (early and late apoptotic ratios) ([9]; PC-3, 1.0 μM): 23.62% | Percentage of Cell Apoptosis (%) Normal Living Cell ([9]; PC-3, 5.0 μM): 54.13% | Percentage of Cell Apoptosis (%) Early Apoptosis ([9]; PC-3, 5.0 μM): 3.64% | Percentage of Cell Apoptosis (%) Necrosis ([9]; PC-3, 5.0 μM): 6.30% | Percentage of Cell Apoptosis (%) Late Apoptosis ([9]; PC-3, 5.0 μM): 35.93% | apoptosis ratio (early and late apoptotic ratios) ([9]; PC-3, 5.0 μM): 39.57% | Percentage of Cell Cycles (%) G1 ([10]; PC-3, 0.2 μM): 46.65% | Percentage of Cell Cycles (%) S ([10]; PC-3, 0.2 μM): 37.26% | Percentage of Cell Cycles (%) G2/M ([10]; PC-3, 0.2 μM): 16.09% | Percentage of Cell Cycles (%) G1 ([10]; PC-3, 1.0 μM): 23.03% | Percentage of Cell Cycles (%) S ([10]; PC-3, 1.0 μM): 30.78% | Percentage of Cell Cycles (%) G2/M ([10]; PC-3, 1.0 μM): 46.19% | percentage of cells in the G2/M phase ([10]; PC-3, 5.0 μM): 44.27% | Percentage of Cell Cycles (%) G1 ([10]; PC-3, 5.0 μM): 55.73% | Percentage of Cell Cycles (%) S ([10]; PC-3, 5.0 μM): 0.00% | Percentage of Cell Cycles (%) G2/M ([10]; PC-3, 5.0 μM): 44.27% | Morphological changes of PC-3 cells (Giemsa stain) [11]: could cause the morphological change of PC-3 cells in a dose-dependent manner
